Source: article PMC6592895, “Unusual Flavones from Primula macrocalyx as Inhibitors of OAT1 and OAT3 and as Antifungal Agents against Candida rugosa” (Scientific Reports, 2019)
Converted amounts (≈) assume the structure as drawn. Where two headings read alike, the source gives them in different places.

Assays:
OAT1 [1] = tested on: OAT1; set-up: method as in PMID 30248705; details: previous study; cited from earlier work
OAT3 [2] = tested on: OAT3; set-up: method as in PMID 30248705; details: previous study; cited from earlier work
[3] = tested on: Candida rugosa (ATCC 10571); experiment: Broth microdilution antifungal assay; type: cell-based; details: YM broth, 25 °C, read-out: MICs C. rugosa
Method: Antifungal activity against C. rugosa (ATCC 10571) was measured as previously described using a broth microdilution method[36]–[38] with minor modifications. The assay was performed in sterile 96-well microtiter plates. Briefly, YM broth was prepared and autoclaved for 20 min at 121 °C, then allowed to cool to room temperature (25 °C). C. rugosa was dispersed in YM broth to an optical density of 1 UA at 600 nm (approximately 1 × 10^7 cfu/mL) using uninoculated broth as the blank. A 198 µL aliquot of the resulting fungal suspension was dispensed into each well of a 96-well plate. Stock solutions of the twelve compounds were prepared in DMSO at a concentration of 50 mM. The stock solutions were diluted to a range of final concentrations (500–0.14 µM) in YM broth such that the final DMSO concentration was no higher than 1%, v/v. A 2 µL aliquot of the resulting test samples was transferred to each well of the plate. Plates were incubated at 25 °C for 24 h prior to measurement of the optical density of each well at 600 nm. […] Amphotericin B was used as positive control.

Candida rugosa = experiment: Agar well diffusion antimicrobial assay; type: cell-based; details: Diutina rugosa, fraction at 1 mg/mL in DMSO, read-out: diameter zone of inhibition
Method: Approximately 15 mL aliquots of each medium were dispensed into petri plates and allowed to solidify, then incubated for 24 h to ensure sterility prior to use. Microbial suspensions (0.5 mL) at a density of 5 × 10^6 cfu/mL were inoculated onto the sterile media and allowed to stand for 10–20 min before wells were cut into the agar using a sterile pipet tip. A 10 µL aliquot of a DMSO solution of plant extracts (1 mg/mL) or fractions (2, 0.2, 0.02 mg/mL) were pipetted into each well. Similarly, 10 µL portions of DMSO and a solution of an appropriate antibiotic standard were applied to each plate as negative and positive controls, respectively. All treated plates were incubated for 24 h in incubators at appropriate temperatures. Zones of inhibition were measured in millimeters. The assays were performed in triplicate.

OAT1 [4] = details: cited from earlier work
OAT1 [5] = target: T1, OAT1 (Homo sapiens, UniProt Q4U2R8); experiment: 6-CF uptake assay in HEK-OAT1 cells; details: for inhibition at 5 min, 50 µM: human, HEK293 cells stably overexpressing OAT1 (HEK-OAT1), pH 7.2, probe 6-CF (4 µM)
T1 sequence (Q4U2R8 1-563): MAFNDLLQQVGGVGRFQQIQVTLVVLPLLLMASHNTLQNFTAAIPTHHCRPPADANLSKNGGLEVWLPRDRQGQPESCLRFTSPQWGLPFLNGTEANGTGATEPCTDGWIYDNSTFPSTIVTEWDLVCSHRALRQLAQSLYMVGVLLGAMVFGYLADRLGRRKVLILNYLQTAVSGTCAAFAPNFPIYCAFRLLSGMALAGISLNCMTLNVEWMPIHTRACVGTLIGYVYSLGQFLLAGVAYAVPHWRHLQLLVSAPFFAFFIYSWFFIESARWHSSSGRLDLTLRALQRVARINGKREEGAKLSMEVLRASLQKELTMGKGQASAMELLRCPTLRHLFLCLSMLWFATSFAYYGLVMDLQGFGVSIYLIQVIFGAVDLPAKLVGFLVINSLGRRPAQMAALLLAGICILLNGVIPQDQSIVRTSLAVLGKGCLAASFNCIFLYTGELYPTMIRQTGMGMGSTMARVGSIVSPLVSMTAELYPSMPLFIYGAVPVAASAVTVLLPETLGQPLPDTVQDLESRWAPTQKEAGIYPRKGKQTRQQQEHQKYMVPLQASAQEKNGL
Method: (§1) The interactions of 12 flavones with the uptake of 6-CF in HEK-OAT1 and HEK-OAT3 cells were evaluated. This cell uptake assay was performed as previously described[14],[35]. A density of 5 × 10^4 cells were seeded per well in 96-well culture plates precoated with poly-D-lysine. […] Uptake was terminated by adding 100 µL ice-cold uptake buffer, and quickly washing the cells in each well three times with ice-cold phosphate-buffered saline (PBS). The cells were lysed with 100 µL of 20 mM Tris-HCl containing 0.2% TritonX-100. […] The protein content of the cell lysate was quantified using a BCA Protein Assay Kit. The intensity of fluorescence was standardized against total protein content, and measured in triplicate. The stock solutions of tested compounds were dissolved in DMSO with a final concentration of 50 mM and dilutions were made using uptake buffer.
(§2) For the uptake experiments, data were analyzed with a two-tailed unpaired Student’s t-test.

OAT3 [6] = target: T2, OAT3 (Homo sapiens, UniProt Q8TCC7); experiment: 6-CF uptake assay in HEK-OAT3 cells
T2 sequence (Q8TCC7 1-542): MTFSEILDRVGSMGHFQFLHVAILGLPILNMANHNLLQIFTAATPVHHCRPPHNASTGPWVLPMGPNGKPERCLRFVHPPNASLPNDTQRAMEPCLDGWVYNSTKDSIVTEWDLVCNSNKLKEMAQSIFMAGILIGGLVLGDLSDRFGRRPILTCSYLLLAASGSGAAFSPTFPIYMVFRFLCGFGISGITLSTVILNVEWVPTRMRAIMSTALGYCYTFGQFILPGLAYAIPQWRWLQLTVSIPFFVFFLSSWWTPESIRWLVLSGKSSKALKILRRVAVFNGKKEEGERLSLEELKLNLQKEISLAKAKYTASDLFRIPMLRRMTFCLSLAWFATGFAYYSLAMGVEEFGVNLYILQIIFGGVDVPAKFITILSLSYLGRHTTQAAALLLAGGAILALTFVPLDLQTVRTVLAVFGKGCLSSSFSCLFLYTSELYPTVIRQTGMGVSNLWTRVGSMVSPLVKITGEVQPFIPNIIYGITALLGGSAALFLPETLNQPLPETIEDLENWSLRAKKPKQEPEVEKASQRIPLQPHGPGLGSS
Method: as §1, §2

OAT1 [7] = details: cited from earlier work; remark: listed apart in the source
OAT1 [8] = details: read-out: IC50 OAT1; assay similar to that used in this study; cited from earlier work
OAT3 [9] = details: cited from earlier work
OAT3 [10] = details: read-out: IC50 OAT3; biflavonoids from Juniperus oblonga; cited from earlier work
Oat3 [11] = details: rat, in vivo, po; cited from earlier work
[12] = Diutina rugosa, ATCC10571, 24 h

MIC [3, 12] | IC50 (OAT1 [5]) | IC50 (OAT3 [6]) | SMILES | further results
– | – | – | COc1cc2c(=O)c(-c3ccccc3O)coc2c(OC)c1OC [2′-hydroxy-6,7,8-trimethoxyisoflavone] | IC50 (OAT1 [1]): 9.1 µM; IC50 (OAT3 [2]): 8.7 µM
– | – | – | COc1c(O)cc2c(=O)c(-c3ccccc3O)coc2c1OC [6,2′-dihydroxy-7,8-dimethoxyisoflavone] | IC50 (OAT3 [2]): 17.9 µM
– | – | – | COc1cc2c(=O)c(-c3ccccc3O)coc2c(OC)c1O [7,2′-dihydroxy-6,8-dimethoxyisoflavone] | IC50 (OAT3 [2]): 5.6 µM
– | – | – | COc1ccc2c(=O)cc(-c3ccccc3)oc2c1 [7-methoxyflavone] | IC50 (OAT1 [1]): 3.6 µM; IC50 (OAT3 [2]): 5.8 µM
0.4 µM (≈ 0.37 µg/mL) | – | – | C[C@@H]1[C@H](O)[C@@H](C)/C=C/C=C/C=C/C=C/C=C/C=C/C=C/[C@H](O[C@@H]2O[C@H](C)[C@@H](O)[C@H](N)[C@@H]2O)C[C@@H]2O[C@](O)(C[C@@H](O)C[C@@H](O)[C@H](O)CC[C@@H](O)C[C@@H](O)CC(=O)O[C@H]1C)C[C@H](O)[C@H]2C(=O)O [Amphotericin B, reference compound] | zone of inhibition at 1000 µg/mL (Candida rugosa): 11 mm
– | – | – | O=c1cc(-c2ccc(O)cc2)oc2cc(O)cc(O)c12 [Apigenin] | IC50 (OAT1 [4]): 0.737 µM
> 500 µM | – | – | COc1cccc(-c2cc(=O)c3ccccc3o2)c1 [Compound 1, 3′-methoxyflavone] | inhibition at 5 min, 50 µM (OAT1 [5]): < 70%; inhibition at 5 min, 50 µM (OAT3 [6]; human, HEK293 cells stably overexpressing OAT3 (HEK-OAT3), pH 7.2, probe 6-CF (4 µM)): < 70%
500 µM (≈ 111 µg/mL) | 9.4 µM | 4.6 µM | O=c1cc(-c2ccccc2)oc2ccccc12 [Compound 2, flavone] | –
> 500 µM | 2.9 µM | 6.3 µM | COc1ccccc1-c1cc(=O)c2ccccc2o1 [Compound 3, 2′-methoxyflavone] | –
> 500 µM | 32.9 µM | 12.1 µM | COc1ccc(OC)c(-c2cc(=O)c3ccccc3o2)c1 [Compound 4, 2′,5′-dimethoxyflavone] | –
> 500 µM | 26.9 µM | 27.3 µM | COc1ccc(O)cc1-c1cc(=O)c2ccccc2o1 [Compound 5, 2′-methoxy-5′-hydroxyflavone] | –
> 500 µM | 3.2 µM | 5.1 µM | COc1cc(-c2cc(=O)c3ccccc3o2)cc(O)c1OC [Compound 6, 3′-hydroxy-4′,5′-dimethoxyflavone] | –
< 2 µM | 10 µM | 7.4 µM | COc1ccc(OC)c(-c2cc(=O)c3c(OC)c(OC)ccc3o2)c1OC [Compound 8, 5,6,2′,3′,6′-pentamethoxyflavone] | MIC ([3]; 24 h): 1.2 µM (≈ 0.447 µg/mL)
> 500 µM | 11.4 µM | 8 µM | O=c1cc(-c2cccc(O)c2)oc2ccccc12 [Compound 9, 3′-hydroxyflavone] | –
> 500 µM | – | 18.8 µM | O=c1cc(-c2ccccc2O)oc2ccccc12 [Compound 10, 2′-hydroxyflavone] | inhibition at 5 min, 50 µM (OAT1 [5]): < 70%
> 500 µM | – | 10.9 µM | COc1cccc(OC)c1-c1cc(=O)c2c(OC)c(OC)cc(OC)c2o1 [Compound 11, 5,6,8,2′,6′-pentamethoxyflavone] | inhibition at 5 min, 50 µM (OAT1 [5]): < 70%
< 2 µM | 9.6 µM | 2.9 µM | COc1ccccc1-c1cc(=O)c2c(OC)c(OC)ccc2o1 [Compound 12, 5,6,2′-trimethoxyflavone] | MIC ([3]; 24 h): 2.0 µM (≈ 0.625 µg/mL)
– | – | – | O=c1c(O)c(-c2ccc(O)cc2O)oc2cc(O)cc(O)c12 [Morin] | IC50 (OAT1 [7]; read-out: IC50 OAT1, PAH uptake assay in LLC-PK1 cells): < 0.3 µM
– | – | – | COc1c(O)cc(O)c2c(=O)cc(-c3ccccc3)oc12 [Wogonin] | IC50 (OAT1 [8]): 5.4 µM; IC50 (OAT3 [9]; read-out: IC50 OAT3, assay similar to that used in this study): 1.3 µM
– | – | – | O=c1cc(-c2ccc(O)c(-c3c(O)cc(O)c4c(=O)cc(-c5ccc(O)cc5)oc34)c2)oc2cc(O)cc(O)c12 [amentoflavone] | IC50 (OAT3 [10]): 2 µM; effect on pharmacokinetic parameters of furosemide (substrate of Oat3) (Oat3 [11]): markedly altered
– | – | – | O=c1cc(-c2ccccc2)oc2cc(O)c(O)c(O)c12 [baicalein] | IC50 (OAT3 [9]): 2.4 µM
– | – | – | O=c1cc(-c2ccc(O)cc2)oc2c(-c3c(O)cc(O)c4c(=O)cc(-c5ccc(O)cc5)oc34)c(O)cc(O)c12 [cupressuflavone] | IC50 (OAT3 [10]): > 50 µM
– | – | – | O=c1cc(-c2ccc(O)c(O)c2)oc2cc(O)cc(O)c12 [luteolin] | IC50 (OAT1 [7]): 0.47 µM
– | – | – | COc1ccc(-c2cc(=O)c3c(O)cc(O)c(-c4cc(-c5cc(=O)c6c(O)cc(O)cc6o5)ccc4O)c3o2)cc1 [podocarpusflavone A] | IC50 (OAT3 [10]): 3.8 µM
